Source: patent US7888042B2, “Methods for identifying insulin mimetics” (Ohio University, priority 2005, dated 2011)

What was measured:
Akt = Akt phosphorylation, Western blot; assay type: cell-based; details: 3T3-L1 adipocytes, 20 or 40 μM, 15 min
Protocol: (A) Glucose transport was measured by determining [^3H]-2-deoxyglucose uptake stimulated by either insulin or α-PGG in 3T3-L1 cells in the presence or absence of HNMPA-(AM)3, an inhibitor of IR tyrosine kinase activity (24); wortmannin, an inhibitor of PI 3-kinase (25), or cytochalasin B, an inhibitor of GLUT4 (26), (n=4, mean±SD). (B) Cells were induced by 20 or 40 μM α-PGG or 100 nM insulin for 15 min. Cell lysates were separated by PAGE and analyzed for phosphorylation of IR (in CHO-IR cells) or Akt (in adipocytes) using antibodies specific to the target proteins. (C) Cells were treated with α-PGG and insulin in a fashion similar to (B) and assayed for their respective PI-3 kinase activity with a radioactive TLC method (27). (D) In similar experiments, intact cells were analyzed by confocal microscopy for translocation of GLUT4 using anti-GLUT4 antibodies.
Protein phosphorylation/activation and GLUT4 translocation. To investigate signal transduction induced by α-PGG, proteins from 3T3-L1 adipocytes or CHO-IR cells (23), which were treated with α-PGG or insulin for 15 min, were isolated, separated by PAGE, blotted on nylon membranes, and analyzed by Western blotting with antibodies against either IR or Akt. […]

α-subunit of IR = biological target: T1, α-subunit of IR (Mus musculus, UniProt P15208); assay: Cross-linking with Sulfo-SANPAH and Western blot with anti-IR α-subunit antibody; assay type: cell-based; details: adipocytes, 200 μM, Sulfo-SANPAH, UV
T1 construct: endogenous in cells; host or cells: 3T3-L1 adipocytes (ATCC)
Protocol: (A) α-PGG binds to IR as measured by a SPR (28). Increasing concentrations of α-PGG was injected into the system to interact with the pure IR attached to the gold surface of the biosensor chip. The binding, represented in arbitrary response units, was automatically plotted against α-PGG concentrations to generate the binding curve. (B) Insulin binding to IR in the absence or presence of α-PGG. Increasing amounts of ^125I-labeled insulin were added to WGA-coated wells containing pre-bound IR isolated from CHO-IR cells in the absence of α-PGG or in the presence of 30 μM or 50 μM of α-PGG. After overnight incubation, removal of excessive ligands, and washing, the bound radioactive insulin was measured. (C) Insulin displacement by α-PGG. Fixed amounts of radioactive insulin (1 nM) were added to each of the WGA-coated wells pre-bound with IR. Increasing amounts of α-PGG were added to the wells to displace the ^125I-labeled insulin. […]
For the cross-linking reaction, sulfosuccinimidyl-6-(4′-azido-2′-nitrophenylamino) hexanoate (Sulfo-SANPAH), a photoactive, non-cleavable cross-linker (31, 32) purchased from Pierce was used to cross link β-PGG to plasma membrane proteins that it interacts with. […] Cells were lysed and the total cell protein was isolated and separated on an 8% reducing SDS-PAGE, transferred to a nylon membrane, and analyzed with an anti-IR α-subunit antibody.

[1] = Body weight, food intake and physical activity of treated mice; assay type: in vivo; details: treated mice vs control mice
Protocol: Animal studies. Genetically diabetic db/db mice or obese ob/ob mice were purchased from Jackson Lab. Male mice of 2-3 months of age were used. Unless otherwise stated, 10 mice (N=10) were used per group. α-PGG was either orally administered or intraperitoneally (ip) injected in the form of an aqueous solution at 20 mg/kg body weight with a 1-cc sterile plastic syringe. At different times after the α-PGG administration, blood or plasma was collected from the tail vein for measurement of glucose and insulin concentrations using commercial kits. Vehicle (aqueous solution) treated mice were used as controls and were statistically compared with the α-PGG treated mice. All animal studies were conducted in accord with the Ohio University guidelines for the use and care of laboratory animals.

T1 sequence (P15208 28-748 limits assumed): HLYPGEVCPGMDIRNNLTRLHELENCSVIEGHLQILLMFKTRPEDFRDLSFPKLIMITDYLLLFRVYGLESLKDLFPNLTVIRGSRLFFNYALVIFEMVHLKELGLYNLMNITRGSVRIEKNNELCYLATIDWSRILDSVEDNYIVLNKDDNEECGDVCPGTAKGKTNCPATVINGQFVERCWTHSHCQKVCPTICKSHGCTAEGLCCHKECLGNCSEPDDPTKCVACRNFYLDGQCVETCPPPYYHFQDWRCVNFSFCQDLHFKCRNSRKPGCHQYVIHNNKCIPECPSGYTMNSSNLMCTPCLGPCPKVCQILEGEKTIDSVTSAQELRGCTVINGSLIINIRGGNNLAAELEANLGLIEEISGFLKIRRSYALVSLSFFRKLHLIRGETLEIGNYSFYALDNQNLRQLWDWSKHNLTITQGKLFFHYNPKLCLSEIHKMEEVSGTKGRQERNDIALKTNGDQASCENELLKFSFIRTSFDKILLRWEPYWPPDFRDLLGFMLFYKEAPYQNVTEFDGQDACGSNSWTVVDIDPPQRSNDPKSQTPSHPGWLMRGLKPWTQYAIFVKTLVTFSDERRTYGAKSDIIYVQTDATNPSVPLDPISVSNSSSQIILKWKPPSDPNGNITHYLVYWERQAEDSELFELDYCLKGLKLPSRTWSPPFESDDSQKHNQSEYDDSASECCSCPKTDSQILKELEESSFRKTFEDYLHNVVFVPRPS
T1 sequence (P15208 753-1372 partner limits assumed): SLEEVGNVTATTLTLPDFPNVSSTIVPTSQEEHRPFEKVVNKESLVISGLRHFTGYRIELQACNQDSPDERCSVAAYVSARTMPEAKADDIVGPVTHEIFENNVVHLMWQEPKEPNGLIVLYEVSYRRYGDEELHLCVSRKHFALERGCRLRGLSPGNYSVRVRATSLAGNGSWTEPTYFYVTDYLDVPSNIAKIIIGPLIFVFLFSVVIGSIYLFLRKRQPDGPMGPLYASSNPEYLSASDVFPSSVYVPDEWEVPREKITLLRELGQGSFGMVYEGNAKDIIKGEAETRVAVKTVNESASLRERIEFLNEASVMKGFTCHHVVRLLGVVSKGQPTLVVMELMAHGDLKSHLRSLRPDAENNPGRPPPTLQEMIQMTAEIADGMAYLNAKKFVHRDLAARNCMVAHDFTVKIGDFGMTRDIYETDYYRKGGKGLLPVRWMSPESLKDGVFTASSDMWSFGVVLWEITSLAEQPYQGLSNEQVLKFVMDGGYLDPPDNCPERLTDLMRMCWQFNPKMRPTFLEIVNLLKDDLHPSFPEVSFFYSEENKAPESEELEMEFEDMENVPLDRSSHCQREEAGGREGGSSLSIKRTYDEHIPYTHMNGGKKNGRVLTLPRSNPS

- gel migration of IR α-subunit after cross-linking (α-subunit of IR): Gel retardation of α-subunit of IR
SMILES: O=C(OC[C@H]1O[C@H](OC(=O)c2cc(O)c(O)c(O)c2)[C@H](OC(=O)c2cc(O)c(O)c(O)c2)[C@@H](OC(=O)c2cc(O)c(O)c(O)c2)[C@@H]1OC(=O)c1cc(O)c(O)c(O)c1)c1cc(O)c(O)c(O)c1 [α-PGG, alpha 1,2,3,4,6-penta-O-galloyl-D-Glucopyranose]
- Akt phosphorylation (Akt): phosphorylated in 3T3-L1 adipocytes in a dose-dependent fashion
- body weight [1]: No significant changes
- food intake [1]: No significant changes
- physical activity [1]: No significant changes
